PMC5085761 (International Journal of Molecular Sciences, 2016)

Target: T1, human MRP4 (Homo sapiens, UniProt O15439)
T1 construct: purchased GenoMembrane Co., Ltd. (Kanagawa, Japan); host or cells: Sf9
T1 sequence (O15439 1-1325): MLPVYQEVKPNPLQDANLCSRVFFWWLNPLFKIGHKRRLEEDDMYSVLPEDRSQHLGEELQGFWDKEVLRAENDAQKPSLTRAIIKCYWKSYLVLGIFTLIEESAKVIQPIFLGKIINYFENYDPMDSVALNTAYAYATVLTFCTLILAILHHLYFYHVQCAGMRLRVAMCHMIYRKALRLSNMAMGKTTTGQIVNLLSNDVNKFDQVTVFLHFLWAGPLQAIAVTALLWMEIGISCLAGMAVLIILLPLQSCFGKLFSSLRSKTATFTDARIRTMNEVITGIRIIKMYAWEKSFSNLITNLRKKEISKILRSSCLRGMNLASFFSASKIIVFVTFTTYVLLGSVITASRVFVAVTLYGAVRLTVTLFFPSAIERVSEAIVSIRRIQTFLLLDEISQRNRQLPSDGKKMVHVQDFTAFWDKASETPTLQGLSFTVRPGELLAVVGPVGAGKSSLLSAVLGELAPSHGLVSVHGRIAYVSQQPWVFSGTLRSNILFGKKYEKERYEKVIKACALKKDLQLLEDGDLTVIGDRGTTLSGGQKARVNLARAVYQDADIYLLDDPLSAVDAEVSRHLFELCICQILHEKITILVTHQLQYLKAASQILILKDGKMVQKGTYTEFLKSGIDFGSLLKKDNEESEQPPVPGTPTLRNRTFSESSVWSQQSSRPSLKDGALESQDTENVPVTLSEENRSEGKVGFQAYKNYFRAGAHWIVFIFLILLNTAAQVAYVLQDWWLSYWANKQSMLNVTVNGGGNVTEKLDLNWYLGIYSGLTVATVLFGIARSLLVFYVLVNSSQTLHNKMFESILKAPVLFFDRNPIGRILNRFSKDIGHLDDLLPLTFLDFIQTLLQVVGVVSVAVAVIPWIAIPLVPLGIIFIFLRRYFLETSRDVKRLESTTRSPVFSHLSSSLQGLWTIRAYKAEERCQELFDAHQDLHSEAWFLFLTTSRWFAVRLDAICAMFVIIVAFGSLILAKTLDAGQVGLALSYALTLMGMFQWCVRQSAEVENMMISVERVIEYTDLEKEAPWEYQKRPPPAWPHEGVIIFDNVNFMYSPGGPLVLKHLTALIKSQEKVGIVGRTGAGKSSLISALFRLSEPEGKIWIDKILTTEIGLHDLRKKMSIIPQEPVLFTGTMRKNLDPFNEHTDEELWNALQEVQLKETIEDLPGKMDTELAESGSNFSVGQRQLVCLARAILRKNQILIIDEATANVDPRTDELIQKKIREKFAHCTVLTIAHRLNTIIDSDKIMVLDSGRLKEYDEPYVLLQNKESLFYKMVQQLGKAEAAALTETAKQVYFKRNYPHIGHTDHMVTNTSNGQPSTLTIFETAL
Test: [14C]fluciclovine uptake by MRP4-expressing inside-out vesicles
Type: in vitro ADME
Protocol: For ABC transporters, experimental kits containing Sf9-derived vesicles with high expression levels of human P-gp, MRP4, BCRP, and each ABC transporter (including buffer, ATP/AMP solution, and glutathione) were purchased from GenoMembrane Co., Ltd. (Kanagawa, Japan).
Vesicular transport assays were carried out according to the manufacturer’s protocol. […] The reaction was started by suspending 50 μg of vesicles (10 μL) in 40 μL of the reaction buffer. After incubation for an appropriate period of time, the reaction was stopped by the addition of ice-cold stop buffer (40 mM MOPS-Tris and 70 mM KCl; pH 7.0), after which the solution was filtered through a 0.45 μm HA filter (Millipore Corp., Billerica, MA, USA) using suction, and was washed twice in 5 mL of ice-cold stop buffer. The radioactivity of the filter was measured with a Tri-Carb 2910TR liquid scintillation counter (PerkinElmer) using Ultima Gold (PerkinElmer). The amount of tracer uptake was normalized to the membrane protein amount described in the product information sheets.

In the case of N[14C]1(C(=O)O)CC(F)C1 (stereo not drawn) [[^14C]fluciclovine, trans-1-amino-3-fluoro[1-^14C]cyclobutanecarboxylic acid], the “uptake compared with control vesicles” value was “no significant difference”.
